Source: paper PMC3794980, “Identification of Conserved and HLA Promiscuous DENV3 T-Cell Epitopes” (PLoS Neglected Tropical Diseases, 2013)
Where no end group is shown, it is not given here.

What was measured:
Experiment in all cases: biochemical
Assay type in all cases: binding
[1] = molecular target: DRB3*0101 (Homo sapiens, UniProt P01903+P79483)
[2] = molecular target: DRB4*0101 (Homo sapiens, UniProt P01903+P13762, G164S)
[3] = molecular target: DRB5*0101 (Homo sapiens, UniProt P01903+Q30154)

## LKKEVSETQHGTILV [Envelope 306-320]
[1]
  IC50: 12100 nM
[2]
  IC50: 7.86 µM
[3]
  IC50: 12600 nM

## CC[C@H](C)[C@H](NC(=O)[C@H](CC(=O)O)NC(=O)[C@H](CCSC)NC(=O)[C@@H](N)C(C)C)C(=O)N[C@H](C(=O)N[C@@H](CO)C(=O)N[C@@H](CCCNC(=N)N)C(=O)N[C@@H](CCCCN)C(=O)N[C@@H](CC(=O)O)C(=O)N[C@@H](CCC(N)=O)C(=O)N[C@@H](CCCNC(=N)N)C(=O)NCC(=O)N[C@@H](CO)C(=O)NCC(=O)N[C@@H](CCC(N)=O)C(=O)N[C@H](C(=O)NCC(=O)O)C(C)C)[C@@H](C)CC [NS5 588-604]
[1]
  IC50: 4260 nM
[2]
  IC50: 6.24 µM
[3]
  IC50: 17100 nM

## CC[C@H](C)[C@H](NC(=O)[C@H](CC(C)C)NC(=O)[C@H](CCCCN)NC(=O)CNC(=O)[C@H](CO)NC(=O)[C@@H](NC(=O)[C@@H](NC(=O)[C@@H](NC(=O)[C@@H](NC(=O)[C@H](CCCNC(=N)N)NC(=O)[C@H](CC(C)C)NC(=O)[C@@H](N)CO)[C@@H](C)O)[C@@H](C)O)[C@@H](C)O)C(C)C)C(=O)N[C@@H](Cc1c[nH]cn1)C(=O)N[C@@H](CCC(=O)O)C(=O)N[C@@H](Cc1c[nH]c2ccccc12)C(=O)O [NS1 297-311]
[1]
  IC50: 12400 nM
[2]
  IC50: 5.31 µM
[3]
  IC50: 2110 nM

## CC(C)C[C@H](N)C(=O)N[C@H](C(=O)N[C@@H](Cc1ccc(O)cc1)C(=O)N[C@@H](CCC(N)=O)C(=O)N[C@@H](CC(N)=O)C(=O)N[C@@H](CCCCN)C(=O)N[C@H](C(=O)N[C@H](C(=O)N[C@@H](CCCCN)C(=O)N[C@H](C(=O)N[C@@H](CCC(N)=O)C(=O)N[C@@H](CCCNC(=N)N)C(=O)N1CCC[C@H]1C(=O)N[C@H](C(=O)N1CCC[C@H]1C(=O)N[C@@H](CCCCN)C(=O)NCC(=O)O)[C@@H](C)O)C(C)C)C(C)C)C(C)C)[C@@H](C)O [NS5 570-586]
[1]
  IC50: 4570 nM
[2]
  IC50: 0.013 µM
[3]
  IC50: 28 nM

## CC[C@H](C)[C@H](N)C(=O)NCC(=O)N[C@@H](CCCCN)C(=O)N[C@@H](CCSC)C(=O)N[C@@H](Cc1ccccc1)C(=O)N[C@@H](CCC(=O)O)C(=O)N[C@@H](C)C(=O)N[C@H](C(=O)N[C@@H](C)C(=O)N[C@@H](CCCNC(=N)N)C(=O)NCC(=O)N[C@@H](C)C(=O)N[C@@H](CCCNC(=N)N)C(=O)N[C@@H](CCCNC(=N)N)C(=O)N[C@@H](CCSC)C(=O)O)[C@@H](C)O [Envelope 396-410]
[1]
  IC50: 424 nM
[2]
  IC50: 3.61 µM
[3]
  IC50: 27 nM

## CC[C@H](C)[C@H](NC(=O)[C@@H](N)C(C)C)C(=O)N[C@@H](CC(C)C)C(=O)N[C@H](C(=O)N[C@@H](CC(=O)O)C(=O)NCC(=O)N1CCC[C@H]1C(=O)N[C@@H](CCC(=O)O)C(=O)N[C@@H](CCCNC(=N)N)C(=O)N[C@H](C(=O)N[C@H](C(=O)N[C@@H](CC(C)C)C(=O)N[C@@H](C)C(=O)NCC(=O)N1CCC[C@H]1C(=O)O)[C@@H](C)CC)C(C)C)[C@@H](C)O [NS3 433-447]
[1]
  IC50: 134 nM
[2]
  IC50: 3.51 µM
[3]
  IC50: 8290 nM

## CC[C@H](C)[C@H](NC(=O)[C@H](CCCNC(=N)N)NC(=O)[C@H](CCCCN)NC(=O)[C@@H](NC(=O)[C@H](CCCNC(=N)N)NC(=O)[C@H](CCC(=O)O)NC(=O)CNC(=O)[C@@H](NC(=O)[C@@H](NC(=O)[C@H](CC(=O)O)NC(=O)[C@H](CCSC)NC(=O)[C@H](CC(N)=O)NC(=O)[C@@H]1CCCN1C(=O)[C@@H](NC(=O)[C@H](CCC(=O)O)NC(=O)[C@@H]1CCCN1)[C@@H](C)O)C(C)C)[C@@H](C)CC)[C@@H](C)CC)C(=O)N[C@@H](CCCCN)C(=O)O [NS5 268-284]
[1]
  IC50: 1390 nM
[2]
  IC50: 0.869 µM
[3]
  IC50: 2830 nM

## CSCC[C@H](NC(=O)[C@H](CCSC)NC(=O)[C@H](CC(N)=O)NC(=O)[C@H](Cc1ccc(O)cc1)NC(=O)[C@@H](NC(=O)[C@H](CS)NC(=O)[C@H](CO)NC(=O)CN)C(C)C)C(=O)NCC(=O)N[C@@H](CCCCN)C(=O)N[C@@H](CCCNC(=N)N)C(=O)N[C@@H](CCC(=O)O)C(=O)N[C@@H](CCCCN)C(=O)N[C@@H](CCCCN)C(=O)N[C@@H](CC(C)C)C(=O)NCC(=O)N[C@@H](CCC(=O)O)C(=O)O [NS5 447-463]
[1]
  IC50: 1760 nM
[2]
  IC50: 8.47 µM
[3]
  IC50: 25 nM

## CC[C@H](C)[C@H](NC(=O)[C@H](CCSC)NC(=O)[C@H](CC(=O)O)NC(=O)[C@H](CO)NC(=O)[C@H](CCC(=O)O)NC(=O)[C@H](CC(C)C)NC(=O)[C@@H](NC(=O)CNC(=O)[C@H](CC(N)=O)NC(=O)[C@@H](N)CO)C(C)C)C(=O)N[C@H](C(=O)N1CCC[C@H]1C(=O)N[C@@H](CCCCN)C(=O)N[C@@H](CO)C(=O)N[C@@H](CC(C)C)C(=O)O)[C@@H](C)CC [NS1 233-247]
[1]
  IC50: 159 nM
[2]
  IC50: 3.87 µM
[3]
  IC50: 4070 nM

## CC(C)[C@H](NC(=O)[C@@H]1CCCN1C(=O)[C@@H](NC(=O)[C@H](C)NC(=O)[C@H](CO)NC(=O)[C@@H](N)CS)C(C)C)C(=O)N[C@@H](Cc1c[nH]cn1)C(=O)N[C@@H](Cc1c[nH]c2ccccc12)C(=O)N[C@H](C(=O)N1CCC[C@H]1C(=O)N[C@H](C(=O)N[C@@H](CO)C(=O)N[C@@H](CCCNC(=N)N)C(=O)N[C@H](C(=O)N[C@H](C(=O)N[C@@H](Cc1c[nH]c2ccccc12)C(=O)O)[C@@H](C)O)[C@@H](C)O)[C@@H](C)O)C(C)C [NS5 780-795]
[1]
  IC50: 2340 nM
[2]
  IC50: 0.168 µM
[3]
  IC50: 1950 nM

## CC[C@H](C)[C@H](NC(=O)[C@H](CC(C)C)NC(=O)[C@H](CCC(=O)O)NC(=O)[C@@H](N)Cc1c[nH]cn1)C(=O)N[C@@H](CCSC)C(=O)N[C@@H](CCCCN)C(=O)N[C@@H](CC(=O)O)C(=O)NCC(=O)N[C@@H](CCCNC(=N)N)C(=O)N[C@@H](CCCCN)C(=O)N[C@@H](CC(C)C)C(=O)N[C@H](C(=O)N[C@H](C(=O)N1CCC[C@H]1C(=O)N[C@@H](CS)C(=O)N[C@@H](CCCNC(=N)N)C(=O)O)C(C)C)C(C)C [NS5 714-729]
[2]
  IC50: 4.02 µM
[3]
  IC50: 245 nM

## CC(C)C[C@H](NC(=O)[C@H](CCCNC(=N)N)NC(=O)[C@H](CCCCN)NC(=O)[C@@H]1CCCN1C(=O)[C@H](CO)NC(=O)[C@H](CC(=O)O)NC(=O)[C@H](C)NC(=O)[C@H](CCC(N)=O)NC(=O)[C@H](Cc1ccccc1)NC(=O)[C@H](CCCCN)NC(=O)[C@H](Cc1ccc(O)cc1)NC(=O)[C@H](CCC(N)=O)NC(=O)[C@H](CCC(=O)O)NC(=O)[C@@H](N)[C@@H](C)O)C(=O)N[C@@H](C)C(=O)O [NS1 29-43]
[1]
  IC50: 11 nM
[2]
  IC50: 14.4 µM
[3]
  IC50: 23 nM

## CC(C)C[C@H](NC(=O)[C@H](Cc1ccccc1)NC(=O)CN)C(=O)N[C@@H](CC(N)=O)C(=O)N[C@@H](CCC(=O)O)C(=O)N[C@@H](CC(=O)O)C(=O)N[C@@H](Cc1c[nH]cn1)C(=O)N[C@@H](Cc1c[nH]c2ccccc12)C(=O)N[C@@H](Cc1ccccc1)C(=O)N[C@@H](CO)C(=O)N[C@@H](CCCNC(=N)N)C(=O)N[C@@H](CCC(=O)O)C(=O)N[C@@H](CC(N)=O)C(=O)N[C@@H](CO)C(=O)N[C@@H](Cc1ccc(O)cc1)C(=O)N[C@@H](CO)C(=O)NCC(=O)O [NS5 489-505]
[1]
  IC50: 387 nM
[2]
  IC50: 13.9 µM
[3]
  IC50: 936 nM

## CC[C@H](C)[C@H](NC(=O)[C@@H](N)CCSC)C(=O)N[C@H](C(=O)N1CCC[C@H]1C(=O)N[C@@H](CCCCN)C(=O)N[C@@H](CO)C(=O)N[C@@H](CC(C)C)C(=O)N[C@@H](C)C(=O)NCC(=O)N1CCC[C@H]1C(=O)N[C@H](C(=O)N[C@@H](CO)C(=O)N[C@@H](CCC(N)=O)C(=O)N[C@@H](Cc1c[nH]cn1)C(=O)N[C@@H](CC(N)=O)C(=O)O)[C@@H](C)CC)[C@@H](C)CC [NS1 241-255]
[2]
  IC50: 1.09 µM
[3]
  IC50: 3200 nM

## CC[C@H](C)[C@H](NC(=O)CNC(=O)[C@H](CO)NC(=O)[C@H](CCCCN)NC(=O)[C@H](CCCCN)NC(=O)[C@H](Cc1ccc(O)cc1)NC(=O)[C@H](CC(C)C)NC(=O)[C@H](CC(=O)O)NC(=O)[C@H](Cc1ccccc1)NC(=O)[C@H](CCC(=O)O)NC(=O)[C@@H](N)CCCCN)C(=O)N[C@H](C(=O)N[C@@H](CCC(=O)O)C(=O)N[C@H](C(=O)N[C@@H](CC(=O)O)C(=O)N[C@@H](CCCNC(=N)N)C(=O)N[C@H](C(=O)O)[C@@H](C)O)C(C)C)[C@@H](C)O [NS5 23-39]
[1]
  IC50: 5800 nM
[2]
  IC50: 3.43 µM
[3]
  IC50: 10100 nM

## CSCC[C@H](NC(=O)[C@H](C)NC(=O)[C@H](CCSC)NC(=O)[C@H](CCC(N)=O)NC(=O)[C@@H](NC(=O)[C@@H](NC(=O)[C@@H](N)CCSC)C(C)C)[C@@H](C)O)C(=O)N[C@H](C(=O)N[C@@H](CC(=O)O)C(=O)N[C@H](C(=O)N[C@H](C(=O)N1CCC[C@H]1C(=O)N[C@@H](Cc1ccccc1)C(=O)NCC(=O)N[C@@H](CCC(N)=O)C(=O)N[C@@H](CCC(N)=O)C(=O)N[C@@H](CCCNC(=N)N)C(=O)O)[C@@H](C)O)[C@@H](C)O)[C@@H](C)O [NS5 336-352]
[2]
  IC50: 0.747 µM
[3]
  IC50: 10400 nM

## CSCC[C@H](NC(=O)[C@H](Cc1ccc(O)cc1)NC(=O)[C@H](CCCNC(=N)N)NC(=O)[C@H](CC(C)C)NC(=O)[C@@H]1CCCN1C(=O)[C@@H]1CCCN1C(=O)[C@H](CC(C)C)NC(=O)[C@@H](NC(=O)[C@H](CS)NC(=O)[C@H](CO)NC(=O)[C@H](CCCNC(=N)N)NC(=O)[C@@H](N)CS)[C@@H](C)O)C(=O)NCC(=O)N[C@@H](CCC(=O)O)C(=O)N[C@@H](CC(=O)O)C(=O)O [NS1 313-327]
[2]
  IC50: 0.503 µM
[3]
  IC50: 2270 nM

## CC[C@H](C)[C@H](NC(=O)[C@H](Cc1ccc(O)cc1)NC(=O)CNC(=O)[C@H](CC(C)C)NC(=O)[C@H](CCCCN)NC(=O)[C@H](Cc1c[nH]cn1)NC(=O)[C@@H](N)CC(C)C)C(=O)N[C@@H](CC(C)C)C(=O)N[C@@H](CCCNC(=N)N)C(=O)N[C@@H](CC(=O)O)C(=O)N[C@H](C(=O)N[C@@H](CO)C(=O)N[C@@H](CCCCN)C(=O)N[C@H](C(=O)N1CCC[C@H]1C(=O)NCC(=O)NCC(=O)O)[C@@H](C)CC)[C@@H](C)CC [NS5 511-527]
[2]
  IC50: 0.057 µM
[3]
  IC50: 611 nM

## CC[C@H](C)[C@H](NC(=O)[C@@H]1CCCN1C(=O)[C@H](CCC(=O)O)NC(=O)[C@H](CC(C)C)NC(=O)[C@@H](N)CS)C(=O)N[C@@H](CCC(=O)O)C(=O)NCC(=O)N[C@@H](CCCCN)C(=O)N[C@H](C(=O)N[C@H](C(=O)N[C@@H](CCC(N)=O)C(=O)N[C@@H](Cc1ccc(O)cc1)C(=O)N[C@@H](CCC(=O)O)C(=O)N[C@@H](CC(N)=O)C(=O)N[C@@H](CC(C)C)C(=O)O)C(C)C)C(C)C [Envelope 121-135]
[2]
  IC50: 1.1 µM
[3]
  IC50: 13300 nM
